Measurements reported in the NIST ThermoML archive (doi:10.1021/je700260f).

Conditions: 283.15 K, Liquid, Vibrating tube method

FC(C(F)(F)F)C(F)(F)F [1,1,1,2,3,3,3-heptafluoropropane]
Conditions | mass density [kg/m3]
6297 kPa | 1481.2
6322 kPa | 1481.4
6344 kPa | 1481.4
6375 kPa | 1481.6
6406 kPa | 1481.7
6431 kPa | 1481.9
6461 kPa | 1481.9
6486 kPa | 1482.3
6517 kPa | 1482.3
6547 kPa | 1482.4
6577 kPa | 1482.5
6611 kPa | 1482.7
6635 kPa | 1482.9
6659 kPa | 1483.1
6686 kPa | 1483.1
6713 kPa | 1483.1
6738 kPa | 1483.2
6762 kPa | 1483.3
6790 kPa | 1483.5
6822 kPa | 1483.7
6853 kPa | 1483.9
6877 kPa | 1484
6913 kPa | 1484.2
6937 kPa | 1484.3
6998 kPa | 1484.5
7022 kPa | 1484.7
7050 kPa | 1484.8
7079 kPa | 1485
7107 kPa | 1485
7134 kPa | 1485.2
7154 kPa | 1485.2
7185 kPa | 1485.5
7209 kPa | 1485.6
7237 kPa | 1485.7
7266 kPa | 1485.9
7293 kPa | 1485.9
7325 kPa | 1486.1
7349 kPa | 1486.2
7385 kPa | 1486.3
7415 kPa | 1486.5
7443 kPa | 1486.7
8348 kPa | 1490.8
8383 kPa | 1491.1
8413 kPa | 1491.1
8453 kPa | 1491.2
8481 kPa | 1491.5
8520 kPa | 1491.6
8545 kPa | 1491.6
8576 kPa | 1491.9
8606 kPa | 1492
8641 kPa | 1492.2
8667 kPa | 1492.3
8702 kPa | 1492.4
8724 kPa | 1492.5
8755 kPa | 1492.6
8782 kPa | 1492.8
8808 kPa | 1492.9
8841 kPa | 1492.9
8868 kPa | 1493.1
8904 kPa | 1493.4
8936 kPa | 1493.4
8973 kPa | 1493.5
9000 kPa | 1493.8
9041 kPa | 1493.9
9068 kPa | 1494
9104 kPa | 1494.2
9140 kPa | 1494.3
9167 kPa | 1494.5
9194 kPa | 1494.6
9230 kPa | 1494.7
9266 kPa | 1495
9294 kPa | 1495.1
9330 kPa | 1495.1
9361 kPa | 1495.3
9403 kPa | 1495.5
9441 kPa | 1495.7
9483 kPa | 1495.8
9641 kPa | 1496.6
9679 kPa | 1496.6
9707 kPa | 1496.9
9754 kPa | 1497
9777 kPa | 1497.2
9809 kPa | 1497.3
9842 kPa | 1497.5
9875 kPa | 1497.5
9912 kPa | 1497.8
9941 kPa | 1497.8
9979 kPa | 1498
10009 kPa | 1498.1
10055 kPa | 1498.3
10080 kPa | 1498.4
10109 kPa | 1498.5
10139 kPa | 1498.7
10164 kPa | 1498.8
10198 kPa | 1499
10233 kPa | 1499.2
10254 kPa | 1499.2
10289 kPa | 1499.3
10314 kPa | 1499.5
10348 kPa | 1499.7
10370 kPa | 1499.7
10399 kPa | 1499.7
10424 kPa | 1500.1
